# Target: PDE7A1 catalytic domain (residues 130–482) (Homo sapiens, UniProt Q13946)
# Assay: [3H]cAMP hydrolysis radioassay
# Type: biochemical
# PDE7A1 catalytic domain (residues 130–482), sequence (Q13946 130-482): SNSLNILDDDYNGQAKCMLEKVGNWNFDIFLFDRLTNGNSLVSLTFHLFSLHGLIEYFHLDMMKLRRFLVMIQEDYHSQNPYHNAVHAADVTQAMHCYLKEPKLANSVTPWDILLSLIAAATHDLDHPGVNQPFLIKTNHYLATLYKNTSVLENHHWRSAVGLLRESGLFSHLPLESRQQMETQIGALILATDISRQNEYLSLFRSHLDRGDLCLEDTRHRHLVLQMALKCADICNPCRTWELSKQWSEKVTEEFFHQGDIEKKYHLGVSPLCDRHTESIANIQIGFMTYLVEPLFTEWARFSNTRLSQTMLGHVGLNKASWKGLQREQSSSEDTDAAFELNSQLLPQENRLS
row,Structure (SMILES),IC50
1,"CC(C)Cn1c(=O)n(C)c(=O)c2[nH]cnc21 [IBMX, reference compound]",8.1 ± 0.4 µM
2,"COc1ccc(C2CNC(=O)C2)cc1OC1CCCC1 (centres unmarked) [Rolipram, reference compound]",129 ± 10 µM

# The next lines start with the values.
row,IC50,Structure (SMILES)
1,~10 µM,"CSc1nc2ccsc2c(=O)n1-c1ccccc1 [compound 35, 2-Methylthio-4-oxo-3-phenyl-3,4-dihydrothieno[3,2-d]pyrimidine]"
2,0.8 ± 0.2 µM,"CSc1nc2ccsc2c(=O)n1-c1c(F)cccc1F [compound 36, 3-(2,6-Difluorophenyl)-2-methylthio-4-oxo-3,4-dihydrothieno-[3,2-d]pyrimidine]"
3,0.41 ± 0.03 µM,"CSc1nc2c(sc3ccccc32)c(=O)n1-c1c(F)cccc1F [compound 39, 3-(2,6-Difluorophenyl)-2-methylthio-4-oxo-3,4-dihydrobenzo-[4,5]thieno[3,2-d]pyrimidine]"
